According to US7745173B2, “Histone deacetylase and methods of use thereof” (The J. David Gladstone Institutes, priority 2001, dated 2010):

Assays:
[1] = test system: CRM1-mediated nuclear export of HDAC7-FLAG; assay: Subcellular localization of HDAC7-FLAG in transfected cells by indirect immunofluorescence; format: cell-based
Experimental: Immunofluorescence and Confocal Microscopy—Cells were plated onto glass coverslips and transfected the following day with Lipofectamine 2000 (Life Technologies) according to the manufacturer's instructions. After incubation overnight, transfected cells were fixed with 1% paraformaldehyde, permeabilized with phosphate buffered saline (PBS), pH 7.2 and 0.5% Triton X-100 and then incubated for 60 min at room temperature with the appropriate antibodies at dilutions typically between 1:100 and 1:1000. Cells were mounted onto glass slides in PBS/90% glycerol containing 1 mM paraphenylenediamine as an antifade reagent. Confocal microscopy was performed with a Zeiss LSM510 laser scanning confocal microscope at 488 nm (Alexa 488-conjugated secondary antibodies) and 543 nm (Cy3-conjugated secondary antibodies). The pinhole aperture was set to 1.0 airy unit for each channel. Band-pass filters and sequential scanning of individual fluorescent probes were used to eliminate cross talk between channels. Images were collected as 12-bit images, and each channel was independently rescaled from 0 to 255 (8-bit) for final presentation. […]

Nur77 = Nur77 mRNA expression by northern blot in DO11.10 T-cells; format: cell-based, mouse; details: DO11.10 cells, 400 nM, various times
Experimental: DO11.10 T cell hybridomas were grown at 37° C., in RPMI 1640 medium supplemented with 10% FBS, 2 mM glutamine and 50 U/ml of streptomycin/penicillin. Transfections were performed by the DEAE-dextran-chlororquine method. The DNA concentration was kept constant in the different samples by using the corresponding empty vector. In some cases, 16 hours after transfection cells were treated with PMA (10 ng/ml) and ionomycin (0.5 μM) for 4 hours and then harvested for reporter assay. All transfections were done in triplicate and are presented as the result of at least 3 independent experiments. Luciferase reporter assays were done with the dual luciferase reporter assay system (Promega) using an EF1α promoter-driven renilla expression vector as an internal control.
The tissue-expression of HDAC7 was analyzed as using a multiple human tissue Northern blot and RNA Master blots obtained from Clontech. Expression of Nur77 upon TSA treatment was assessed as followed. DO11.10 cells were treated with 400 nM of TSA (Sigma) for various times. […] Autoradiographs were analyzed with a FUJIX BAS1000 phosphorus imaging system (Fuji, Tokyo, Japan). Quantification analysis of autoradiographs was performed on a Macintosh computer using the public domain NIH Image 1.62 program (developed at the U.S. National Institute of Health).

thymocytes = assay: Apoptosis in thymocytes expressing dominant negative HDAC7 constructs, commercially available kit; format: cell-based; details: construct expressed in thymocytes
Experimental: Constructs encoding dominant negative mutants of HDAC7 were generated. These constructs direct expression of either the amino terminal domain (amino acids 1-437) or the carboxyl terminal domain (amino acids 438-915) of HDAC7 in mammalian cells. These construct were individually introduced into thymocytes. Apoptosis was measured using a commercially available kit.

Molecule | Apoptosis in thymocytes (thymocytes) | also measured
CCC(=C/[C@H](C)C/C=C/C(C)=C/[C@@H](C)C(=O)[C@@H](C)[C@H](O)[C@@H](C)C/C(C)=C/C(=O)O)/C=C/[C@@H]1OC(=O)C=C[C@@H]1C [leptomycin B] |  | Subcellular localization of HDAC7-FLAG [1]: nuclear localization of HDAC7-FLAG in most transfected cells
CC(/C=C/C(=O)NO)=C\[C@@H](C)C(=O)c1ccc(N(C)C)cc1 [trichostatin A] |  | Nur77 mRNA expression (Nur77): induced in a time dependent manner
carboxyl terminal domain (amino acids 438-915): dominant negative mutant of HDAC7: carboxyl terminal domain, amino acids 438-915, expressed from a construct (protein, UniProt Q8WUI4 438-915, looked up, fragment) GPAPLQQHPQVLLWEQQRLAGRLPRGSTGDTVLLPLAQGGHRPLSRAQSSPAAPASLSAPEPASQARVLSSSETPARTLPFTTGLIYDSVMLKHQCSCGDNSRHPEHAGRIQSIWSRLQERGLRSQCECLRGRKASLEELQSVHSERHVLLYGTNPLSRLKLDNGKLAGLLAQRMFVMLPCGGVGVDTDTIWNELHSSNAARWAAGSVTDLAFKVASRELKNGFAVVRPPGHHADHSTAMGFCFFNSVAIACRQLQQQSKASKILIVDWDVHHGNGTQQTFYQDPSVLYISLHRHDDGNFFPGSGAVDEVGAGSGEGFNVNVAWAGGLDPPMGDPEYLAAFRIVVMPIAREFSPDLVLVSAGFDAAEGHPAPLGGYHVSAKCFGYMTQQLMNLAGGAVVLALEGGHDLTAICDASEACVAALLGNRVDPLSEEGWKQKPNLNAIRSLEAVIRVHSKYWGCMQRLASCPDSWVPRVPGA | strongly induces apoptosis | 
amino terminal domain (amino acids 1-437): dominant negative mutant of HDAC7: amino terminal domain, amino acids 1-437, expressed from a construct (protein, UniProt Q8WUI4 1-437, looked up, fragment) MDLRVGQRPPVEPPPEPTLLALQRPQRLHHHLFLAGLQQQRSVEPMRLSMDTPMPELQVGPQEQELRQLLHKDKSKRSAVASSVVKQKLAEVILKKQQAALERTVHPNSPGIPYRTLEPLETEGATRSMLSSFLPPVPSLPSDPPEHFPLRKTVSEPNLKLRYKPKKSLERRKNPLLRKESAPPSLRRRPAETLGDSSPSSSSTPASGCSSPNDSEHGPNPILGSEALLGQRLRLQETSVAPFALPTVSLLPAITLGLPAPARADSDRRTHPTLGPRGPILGSPHTPLFLPHGLEPEAGGTLPSRLQPILLLDPSGSHAPLLTVPGLGPLPFHFAQSLMTTERLSGSGLHWPLSRTRSEPLPPSATAPPPPGPMQPRLEQLKTHVQVIKRSAKPSEKPRLRQIPSAEDLETDGGGPGQVVDDGLEHRELGHGQPEAR | strongly induces apoptosis | 
